Test results reported in paper PMC6909939, “Study on the Interactions Between Caffeoylquinic Acids With Bovine Serum Albumin: Spectroscopy, Antioxidant Activity, LC-MS^n, and Molecular Docking Approach” (Frontiers in Chemistry, 2019).
Several values for one entry are separate records, joined by “and”; a condition that tells them apart may be missing. Equal entries are not always repeated. Where two headings read alike, the source gives them in different places.

Experiments:
BSA = target: T1, BSA (Bos taurus, UniProt P02769); experiment: CD measurement of BSA secondary structure (α-helix content); design: species or system bovine
T1 construct: purchased AMRESCO
T1 sequence (P02769 25-607): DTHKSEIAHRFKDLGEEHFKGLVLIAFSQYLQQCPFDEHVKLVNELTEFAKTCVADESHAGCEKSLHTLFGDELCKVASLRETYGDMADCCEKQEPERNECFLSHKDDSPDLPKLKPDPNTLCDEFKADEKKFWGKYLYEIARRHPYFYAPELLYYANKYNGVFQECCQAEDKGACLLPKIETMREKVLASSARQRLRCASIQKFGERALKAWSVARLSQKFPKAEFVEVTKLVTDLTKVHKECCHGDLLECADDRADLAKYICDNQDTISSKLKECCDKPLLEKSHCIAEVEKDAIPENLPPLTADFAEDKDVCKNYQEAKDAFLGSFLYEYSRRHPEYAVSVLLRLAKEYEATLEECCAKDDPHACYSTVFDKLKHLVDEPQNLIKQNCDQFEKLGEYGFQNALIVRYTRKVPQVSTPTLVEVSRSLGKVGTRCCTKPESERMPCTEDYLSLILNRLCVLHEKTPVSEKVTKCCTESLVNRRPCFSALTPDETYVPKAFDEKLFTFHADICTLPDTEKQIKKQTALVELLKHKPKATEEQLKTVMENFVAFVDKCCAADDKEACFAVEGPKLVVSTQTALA
Description: The J-815 automatic recording spectropolarimeter (Japan) equipped with 1.0 mm path length quartz cuvettes was employed to determine the CD spectrum of BSA and CQAs-BSA. All the CD spectra were recorded from 190 to 250 nm at 300 K, and the scanning speeds were all set as 50 nm·min^−1. The concentration of BSA and CQAs was 2.0 × 10^−6 and 10.0 × 10^−6 M, respectively. Each spectrum was scanned for successive three times and corrected by corresponding buffer solution.
Far-UV CD spectrum could monitor the secondary structures changes of BSA. To further study the interaction of CQAs and BSA and accurately detect the changes of the secondary structures of BSA, CD spectra of BSA was performed in with or without CQAs in different solvent systems.

[1] = target: T2, bovine serum albumin (BSA) (Bos taurus, UniProt P02769); experiment: Fluorescence quenching of BSA by CQAs (Stern-Volmer, double-log, Van't Hoff); format: binding; settings: for ΔH / ΔS: 300-310 K; for Kd: read-out: Ka (converted); for λa-λj (shift of BSA fluorescence emission): CQA 0 to 5.0 × 10^−6 M
T2 construct: purchased AMRESCO
T2 sequence (P02769 25-607): as above
Description: Fluorescence analysis was determined with the LS-45 fluorophotometer (PerkinElmer, USA). […] The synchronous fluorescence spectrum was recorded at Δλ = 15/60 nm at 300 K. The concentration of BSA was set as 0.2 × 10^−6 M, and the concentrations of CQAs were set as 0~5.0 × 10^−6 M by successive additions. The 3D fluorescence spectrum of BSA (0.2 × 10^−6 M) and the BSA-drug (10:1 mol ratio of protein to ligand) complexes were determined at 200–350 nm in 5 nm increments, and the emission spectrum was set as between 200 and 500 nm.
Static and dynamic quenching were two kinds of quenching mechanisms. Both of them followed the equation of Stern-Volmer (Tang and Jia, [2013]): […]
where F0 and F were the fluorescence intensities of BSA with or without CQAs, respectively; KSV were the Stern-Volmer quenching constants; [Q] was the concentration of CQAs.
Binding constants and binding sites could be determined by double logarithmic curve equation (Hemmateenejad et al., [2012]):
(2) logF0-F/F=logKa+nlog[Q]
where F0 and F were the fluorescence intensities of BSA with or without CQAs, respectively; [Q] was the concentrations of CQAs; Ka was the binding constants and n was the number of binding sites.
The binding force between drugs and BSA was non-covalent interaction, like hydrogen-bond interaction, electrostatic forces, hydrophobic effects and Van der Waals forces (Cheng et al., [2015]). The binding parameters could be employed to determine the types of binding forces. The value of ΔH (enthalpy change) and ΔS (entropy changes) could be determined by Van't Hoff equation: […]
where Ka were the binding constants, R were the gas constants and T was the temperatures. Free energy changes (ΔG) could be determined by the following equation: […]

bovine serum albumin = settings: ref Li et al., 2010; cited from earlier work

**Q.** With O=C(C=Cc1ccc(O)c(O)c1)OC1C(O)CC(O)(C(=O)O)CC1O (stereo not shown) [4-CQA, 4-O-caffeoylquinic acid] as the molecule, how does the “increase of α-helix content of BSA” value (BSA; H2O) read?
**A.** 4.84%

**Q.** What about the “increase of α-helix content of BSA” value (BSA; PBS buffer) of the same molecule?
**A.** 1.97%

**Q.** And the “increase of α-helix content of BSA” value (BSA; Tris-HCl buffer)?
**A.** 14.14%

**Q.** What about the Fluorescence quenching rate ([1]; H2O) of the same molecule?
**A.** 30.99%

**Q.** What about the ΔH ([1]; H2O) of the same molecule?
**A.** -60.053 kcal/mol

**Q.** What about the ΔS ([1]; H2O) of the same molecule?
**A.** -705.46 J·mol^−1·k^−1

**Q.** What about the KSV ([1]; H2O, 300 K) of the same molecule?
**A.** 83600 L/mol

**Q.** And the “n (number of binding sites)” value ([1]; H2O, 300 K)?
**A.** 1.3458

**Q.** And the ΔG ([1]; H2O, 300 K)?
**A.** -9.469 kcal/mol

**Q.** What about the Kd ([1]; H2O, 300 K) of the same molecule?
**A.** 0.173 µM

**Q.** And the KSV ([1]; H2O, 305 K)?
**A.** 60500 L/mol

**Q.** What about the “n (number of binding sites)” value ([1]; H2O, 305 K) of the same molecule?
**A.** 1.3177

**Q.** And the ΔG ([1]; H2O, 305 K)?
**A.** -8.626 kcal/mol

**Q.** And the Kd ([1]; H2O, 305 K)?
**A.** 0.347 µM

**Q.** What about the KSV ([1]; H2O, 310 K) of the same molecule?
**A.** 57700 L/mol

**Q.** And the “n (number of binding sites)” value ([1]; H2O, 310 K)?
**A.** 1.1102

**Q.** What about the ΔG ([1]; H2O, 310 K) of the same molecule?
**A.** -7.784 kcal/mol

**Q.** And the Kd ([1]; H2O, 310 K)?
**A.** 4.52 µM

**Q.** And the “λa-λj (shift of BSA fluorescence emission)” value ([1]; H2O)?
**A.** -5.5 nm

**Q.** And the Fluorescence quenching rate ([1]; PBS)?
**A.** 22.65%

**Q.** And the ΔH ([1]; PBS)?
**A.** -64.912 kcal/mol

**Q.** And the ΔS ([1]; PBS)?
**A.** -774.09 J·mol^−1·k^−1

**Q.** And the KSV ([1]; PBS, 300 K)?
**A.** 132900 L/mol

**Q.** What about the “n (number of binding sites)” value ([1]; PBS, 300 K) of the same molecule?
**A.** 1.3138

**Q.** What about the ΔG ([1]; PBS, 300 K) of the same molecule?
**A.** -9.407 kcal/mol

**Q.** What about the Kd ([1]; PBS, 300 K) of the same molecule?
**A.** 0.175 µM

**Q.** And the KSV ([1]; PBS, 305 K)?
**A.** 98000 L/mol

**Q.** And the “n (number of binding sites)” value ([1]; PBS, 305 K)?
**A.** 1.2398

**Q.** What about the ΔG ([1]; PBS, 305 K) of the same molecule?
**A.** -8.482 kcal/mol

**Q.** What about the Kd ([1]; PBS, 305 K) of the same molecule?
**A.** 0.532 µM

**Q.** What about the KSV ([1]; PBS, 310 K) of the same molecule?
**A.** 60000 L/mol

**Q.** What about the “n (number of binding sites)” value ([1]; PBS, 310 K) of the same molecule?
**A.** 1.0835

**Q.** What about the ΔG ([1]; PBS, 310 K) of the same molecule?
**A.** -7.557 kcal/mol

**Q.** What about the Kd ([1]; PBS, 310 K) of the same molecule?
**A.** 5.92 µM

**Q.** What about the “λa-λj (shift of BSA fluorescence emission)” value ([1]; PBS) of the same molecule?
**A.** -4 nm

**Q.** What about the Fluorescence quenching rate ([1]; Tris-HCl) of the same molecule?
**A.** 35.83%

**Q.** What about the “binding affinity change (times) when temperature rises from 300 to 310 K” value ([1]; Tris-HCl) of the same molecule?
**A.** 37.4

**Q.** And the ΔH ([1]; Tris-HCl)?
**A.** -52.079 kcal/mol

**Q.** And the ΔS ([1]; Tris-HCl)?
**A.** -588.56 J·mol^−1·k^−1

**Q.** And the KSV ([1]; Tris-HCl, 300 K)?
**A.** 189400 L/mol

**Q.** What about the “n (number of binding sites)” value ([1]; Tris-HCl, 300 K) of the same molecule?
**A.** 1.4214

**Q.** And the ΔG ([1]; Tris-HCl, 300 K)?
**A.** -9.878 kcal/mol

**Q.** What about the Kd ([1]; Tris-HCl, 300 K) of the same molecule?
**A.** 0.0301 µM

**Q.** What about the KSV ([1]; Tris-HCl, 305 K) of the same molecule?
**A.** 120400 L/mol

**Q.** And the “n (number of binding sites)” value ([1]; Tris-HCl, 305 K)?
**A.** 1.2871

**Q.** What about the ΔG ([1]; Tris-HCl, 305 K) of the same molecule?
**A.** -9.178 kcal/mol

**Q.** What about the Kd ([1]; Tris-HCl, 305 K) of the same molecule?
**A.** 0.238 µM

**Q.** What about the KSV ([1]; Tris-HCl, 310 K) of the same molecule?
**A.** 47100 L/mol

**Q.** And the “n (number of binding sites)” value ([1]; Tris-HCl, 310 K)?
**A.** 1.2434

**Q.** And the ΔG ([1]; Tris-HCl, 310 K)?
**A.** -8.473 kcal/mol

**Q.** What about the Kd ([1]; Tris-HCl, 310 K) of the same molecule?
**A.** 1.13 µM

**Q.** And the “λa-λj (shift of BSA fluorescence emission)” value ([1]; Tris-HCl)?
**A.** 3.5 nm

**Q.** Which “increase of α-helix content of BSA” value (BSA; Tris-HCl buffer) does the source give for O=C(C=Cc1ccc(O)c(O)c1)OC1CC(O)(C(=O)O)CC(O)C1O (stereo not shown) [3-CQA, 3-O-caffeoylquinic acid] here?
**A.** 5.15%

**Q.** What about the Fluorescence quenching rate [1] of the same molecule?
**A.** 40.14% and 32.93%

**Q.** What about the ΔG ([1]; H2O, 305 K) of the same molecule?
**A.** -8.535 kcal/mol

**Q.** What about the ΔG ([1]; H2O, 310 K) of the same molecule?
**A.** -8.05 kcal/mol

**Q.** And the ΔG ([1]; PBS, 310 K)?
**A.** -8.081 kcal/mol

**Q.** And the ΔG ([1]; Tris-HCl, 300 K)?
**A.** -9.498 kcal/mol

**Q.** With O=C(/C=C/c1ccc(O)c(O)c1)O[C@@H]1C[C@](O)(C(=O)O)C[C@@H](O)[C@H]1O [5-CQA, 5-O-caffeoylquinic acid] as the molecule, how does the “increase of α-helix content of BSA” value (BSA; H2O) read?
**A.** 0.69%

**Q.** And the “increase of α-helix content of BSA” value (BSA; PBS buffer)?
**A.** 0.08%

**Q.** And the “increase of α-helix content of BSA” value (BSA; Tris-HCl buffer)?
**A.** 8.16%

**Q.** And the binding constant (bovine serum albumin)?
**A.** higher than that of caffeic acid

**Q.** And the Fluorescence quenching rate [1]?
**A.** 35.34% and 32.09%

**Q.** What about the “n (number of binding sites)” value [1] of the same molecule?
**A.** 0.9251

**Q.** And the ΔG ([1]; Tris-HCl, 300 K)?
**A.** -10.18 kcal/mol

**Q.** And the ΔG ([1]; Tris-HCl, 305 K)?
**A.** -9.252 kcal/mol

**Q.** And the ΔG ([1]; Tris-HCl, 310 K)?
**A.** -8.325 kcal/mol
